Assay results from patent US20170165322A1, “PEPTIDE AND SMALL MOLECULE AGONISTS OF EPHA AND THEIR USES IN DISEASE” (CASE WESTERN RESERVE UNIVERSITY, priority 2006, published 2017).

How the values were obtained:
H460 xenograft = H460 xenograft growth in nude mice; assay type: in vivo, human; settings: ephrin-A1-Fc 5 μg/g i.p. once every two days, five times, Alimta 150 mg/kg i.p. daily x 5 days
Procedure: FIGS. 16(A-B) illustrate, A) Systemic treatment with ephrin-A1-Fc, but not control Fc, inhibited the growth of H1975 NSCLC xenografts. Eight-week old NCR nude mice were injected with 2×10^6 H1975 cells s.c. into the hind flanks. One week later, when the tumors had reached an average of about 100 mm3, mice (5/group) were injected i.p. twice a week with Fc or ephrin-A1-Fc at 2.5 or 5.0 μg/g. Equal volume of PBS was used as control. The day of the first treatment was designated as day 1. Rapid tumor growth necessitated termination of experiment at day 18. B) Comparison between ephrin-A1-Fc and Alimta for therapeutic efficacy on H460 xenografts. Cell implantation and treatment were the same as in (A). Alimta/Pemetrexed was injected at 150 mg/kg, i.p daily×5 days), or ephrin-A1-Fc (5 μg/g, mouse, i.p, once every two days, for five times). Note ephrin-A1-Fc treatment achieved better efficacy of tumor growth inhibition than Alimta, a new drug for lung cancer therapy in this cell type. * Indicates significant difference between PBS and ephrin-A1-treated groups, p<0.05.
We next compared ephrin-A1-Fc and Alimta/Pemetrexed for therapeutic efficacy against H460 xenograft. H460 cells are derived from a lung adenocarcinoma that express moderate levels of EphA2 (not shown). […]

Akt = experiment: Immunoblot of p-Akt (Ser473) in DU145 cells; assay type: cell-based, human; settings: DU145-vector, then ephrin-A1 30 min
Procedure: (§1) A Immunoblot analysis of the expression and tyrosine phosphorylation of EphA2 in DU145 cells. Parental DU145 cells were stably infected with a retroviral vector expressing wild-type EphA2 or empty vector. Clonal puromycin-resistant cells were isolated and expanded. The selected cells at 70-80% confluence were stimulated with 2 μg/ml ephrin-A1-Fc for the indicated times. The total cell lysates were resolved by SDS-PAGE and then probed with rabbit polyclonal anti-p-EphA/B and anti-EphA2 antibodies. […] The cells were treated as described in (A). Cell lysates were subject to immunoblot with the indicated antibodies.
(§2) DU145-vector cells were pretreated with okadaic acid (10, 50, and 250 nM) for 1 h, followed by stimulation with ephrin-A1-Fc for 30 min. The total cellular lysates were prepared and subjected to immunoblot analyses as described in FIG. 1 using the indicated antibodies. Notes: Okadaic acid inhibits only PP2A at low concentrations (<100 nM), but it inhibits both PP1 and PP2A at higher concentrations (>100 nM).
(§3) A. Cells were treated with rapamycin (1 nM) in the absence or presence of ephrin-A1 (2 μg/ml) for the indicated times Immunoblot analysis was performed as described above. […]

PP2A = settings: low concentrations; cited from earlier work
ERK1/2 = experiment: Immunoblot of p-ERK1/2 in DU145 cells; assay type: cell-based, human; settings: DU145-vector, okadaic acid pretreatment 1 h, then ephrin-A1 30 min
Procedure: as §1, §2, §3

PP1 = settings: higher concentrations; cited from earlier work

## Nc1nc2[nH]cc(CCc3ccc(C(=O)N[C@@H](CCC(=O)O)C(=O)O)cc3)c2c(=O)[nH]1 [Alimta, Pemetrexed]
H460 xenograft
  growth of H460 xenograft: minimal effects

## C=C1[C@@H](O)[C@@H]2O[C@]3(CC[C@H](/C=C/[C@@H](C)[C@@H]4CC(C)=C[C@@]5(O[C@H](C[C@@](C)(O)C(=O)O)CC[C@H]5O)O4)O3)CC[C@H]2O[C@@H]1[C@@H](O)C[C@H](C)[C@H]1O[C@@]2(CCCCO2)CC[C@H]1C [okadaic acid]
Akt; okadaic acid 250 nM pretreatment 1 h
  effect on Akt dephosphorylation induced by EphA2 activation: completely blocked
Akt; okadaic acid 10 and 50 nM pretreatment 1 h
  effect on Akt dephosphorylation induced by EphA2 activation: did not affect Akt dephosphorylation
PP2A
  concentrations at which only PP2A is inhibited: < 100 nM
ERK1/2
  effects on ERK1/2 under the same conditions: not as pronounced
PP1
  concentrations at which both PP1 and PP2A are inhibited: > 100 nM
